Data from ChEMBL document CHEMBL6087470, “Design of Small Non-Peptidic Ligands That Alter Heteromerization between Cannabinoid CB1 and Serotonin 5HT2A Receptors” (J Med Chem, 2025).
Activity calls are given as the source filed them. The rule behind the calls is not given here.

Tests used:
HEK-293T [1] = assay: Effect on G-protein coupling of 5HT2AR in forskolin-treated HEK293T cells transfected with CB1R-nYFP-5HT2AR-cYFP pretreated with DOI by cAMP based HTRF assay; type: functional, cell-based; details: Homo sapiens
[2] = target: Cannabinoid receptor 1 (Homo sapiens) (UniProt P21554); assay: Binding affinity to human CB1R-nYFP-CB1R-cYFP homodimerization co-transfected in HEK293T cells at 4 uM incubated for 4 hrs by BiFC assay; type: cell-based
Chain of Cannabinoid receptor 1 (Homo sapiens) (P21554 whole entry): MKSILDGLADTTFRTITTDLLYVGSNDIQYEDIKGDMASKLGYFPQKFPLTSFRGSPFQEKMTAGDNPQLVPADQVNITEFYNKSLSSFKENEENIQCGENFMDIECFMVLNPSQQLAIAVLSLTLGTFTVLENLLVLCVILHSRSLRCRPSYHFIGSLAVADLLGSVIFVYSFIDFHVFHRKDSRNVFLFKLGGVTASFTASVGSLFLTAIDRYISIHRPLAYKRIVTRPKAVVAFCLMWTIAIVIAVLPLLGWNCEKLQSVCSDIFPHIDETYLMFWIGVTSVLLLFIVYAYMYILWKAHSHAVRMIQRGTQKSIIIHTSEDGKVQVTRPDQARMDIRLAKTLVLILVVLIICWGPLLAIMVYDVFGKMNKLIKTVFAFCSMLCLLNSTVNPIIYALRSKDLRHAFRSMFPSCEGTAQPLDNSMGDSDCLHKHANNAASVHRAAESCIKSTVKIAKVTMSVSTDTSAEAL

HEK293T = assay: Disruption of human CB1R-nYFP-5HT2AR-cYFP heterodimerization co-transfected in HEK293T cells assessed as decrease in fluorescence signal at 4 uM incubated for 4 hrs by BiFC assay; type: cell-based
HEK-293T [3] = assay: Upregulation of ERK1/2 phosphorylation in forskolin-treated HEK293T cells transfected with CB1R-nYFP-5HT2AR-cYFP pretreated with DOI/RIM by cAMP based HTRF assay; type: functional, cell-based; details: Homo sapiens
HEK-293T [4] = assay: Effect on G-protein coupling of 5HT2AR in forskolin-treated HEK293T cells transfected with CB1R-nYFP-5HT2AR-cYFP assessed as decrease in cAMP level pretreated with DOI/WIN by HTRF assay; type: functional, cell-based; details: Homo sapiens
HEK-293T [5] = assay: Effect on ERK1/2 phosphorylation in forskolin-treated HEK293T cells transfected with CB1R-nYFP-5HT2AR-cYFP pretreated with DOI by cAMP based HTRF assay; type: functional, cell-based; details: Homo sapiens
[6] = target: 5-hydroxytryptamine receptor 2A (Homo sapiens) (UniProt P28223); assay: Binding affinity to human 5HT2AR-nYFP-5HT2AR-cYFP homodimerization co-transfected in HEK293T cells at 4 uM incubated for 4 hrs by BiFC assay; type: cell-based
Chain of 5-hydroxytryptamine receptor 2A (Homo sapiens) (P28223 whole entry): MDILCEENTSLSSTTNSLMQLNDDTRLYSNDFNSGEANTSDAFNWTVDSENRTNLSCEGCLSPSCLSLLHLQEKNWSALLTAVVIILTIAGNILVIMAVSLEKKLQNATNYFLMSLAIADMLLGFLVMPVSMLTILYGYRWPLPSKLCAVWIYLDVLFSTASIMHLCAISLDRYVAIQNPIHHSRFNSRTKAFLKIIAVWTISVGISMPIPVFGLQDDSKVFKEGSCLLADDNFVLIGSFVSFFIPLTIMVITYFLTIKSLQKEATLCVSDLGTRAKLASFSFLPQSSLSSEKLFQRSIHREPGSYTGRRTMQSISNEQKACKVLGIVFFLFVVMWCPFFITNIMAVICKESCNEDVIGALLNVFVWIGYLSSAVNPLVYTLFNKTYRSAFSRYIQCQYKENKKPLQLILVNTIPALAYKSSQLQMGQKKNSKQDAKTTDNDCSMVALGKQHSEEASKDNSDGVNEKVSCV

HEK-293T [7] = assay: Upregulation of ERK1/2 phosphorylation in forskolin-treated HEK293T cells transfected with CB1R-nYFP-5HT2AR-cYFP pretreated with DOI/WIN by cAMP based HTRF assay; type: functional, cell-based; details: Homo sapiens
HEK-293T [8] = assay: Effect on G-protein coupling of 5HT2AR in forskolin-treated HEK293T cells transfected with CB1R-nYFP-5HT2AR-cYFP assessed as decrease in cAMP level pretreated with WIN/MDL by HTRF assay; type: functional, cell-based; details: Homo sapiens
HEK-293T [9] = assay: Effect on G-protein coupling of 5HT2AR in forskolin-treated HEK293T cells transfected with CB1R-nYFP-5HT2AR-cYFP pretreated with WIN by cAMP based HTRF assay; type: functional, cell-based; details: Homo sapiens
HEK-293T [10] = assay: Effect on G-protein coupling of 5HT2AR in forskolin-treated HEK293T cells transfected with CB1R-nYFP-5HT2AR-cYFP assessed as decrease in cAMP level pretreated with DOI/RIM by HTRF assay; type: functional, cell-based; details: Homo sapiens
HEK-293T [11] = assay: Upregulation of ERK1/2 phosphorylation in forskolin-treated HEK293T cells transfected with CB1R-nYFP-5HT2AR-cYFP pretreated with WIN/MDL by cAMP based HTRF assay; type: functional, cell-based; details: Homo sapiens

SMILES	Activity (HEK-293T [1])	Activity [2]	Activity (HEK293T)	Activity (HEK-293T [3])	Activity (HEK-293T [4])	Activity (HEK-293T [5])	Activity [6]	Activity (HEK-293T [7])	Activity (HEK-293T [8])	Activity (HEK-293T [9])	Activity (HEK-293T [10])	Activity (HEK-293T [11])
CC(C)CNC(=O)c1oc2ccccc2c1COc1ccccc1	No effect	inactive	Active	Active	Active	No effect	Active	Active	Active	No effect	Active	Active
C=CCNC(=O)c1cn(-c2ccccc2)nc1-c1cccs1	–	Active	–	–	–	–	inactive	–	–	–	–	–
CCC(CC)C(=O)N(Cc1ccccc1)Cc1ccccc1	No effect	inactive	Active	Active	Active	No effect	Active	Active	Active	No effect	Active	Active
CC(C)COCC(NC(=O)c1cccnc1)c1ccco1 (stereo not given)	–	–	Active	–	–	–	–	–	–	–	–	–
CC(C)COc1nc(-c2ccccc2)cc(-c2ccccc2)c1C#N	–	–	Active	–	–	–	–	–	–	–	–	–
CC(C)NC(=O)Cn1ccc2ccc(OCc3ccccc3)cc21	No effect	inactive	Active	Active	Active	No effect	Active	Active	Active	No effect	Active	Active
